According to US20220167645A1, “METHODS OF IMPROVING FISH FEED CONVERSION RATE AND SURVIVAL” (AQUINOVO LTD., priority 2019, published 2022):
“And” between values parts separate entries of the source, which are not always exact repeats. Identical values can stand only once. Numbered stars: 1 amine (or outer) side, 2 acyl side, 3 side chain; on linkers, the order of the positions; unused ones are H or OH. Square brackets hold non-standard residues; d marks the D form. Suc = O=C(CCC(=O)[*:2])[*:1]; NMeV = CN[C@H](C(=O)O)C(C)C; βAla = NCCC(=O)O

Key:
[1] = AN6 half-life in blood and residual peptide in muscle and plasma; conditions: in vivo
Tilapia fish = experiment: Experiment #1: tilapia fed AN6-coated feed in two phases (growth, biomass, mortality, FCR); assay type: in vivo
Experimental: MeM (powder, manufactured by Bern Aqua), Nanolis P1, P2 (pellet sizes of 0.8-1 mm, 1-1.5 mm, respectively, manufactured by Ocialis) and Tilaphi 1, 2 & 3 (pellet sizes of 1-1.5 mm, 2 mm, 3-5.5 mm, respectively, manufactured by Ocialis) were used as basic regular feed. The basic feed was coated according to the following general procedure: 9 ml or 3 ml of Tris-HCl solution (50 mM, pH=8.8) were diluted to 60 ml with distilled H2O. For AN6-containing feed preparation, desired amounts of AN6 peptide (a TK antagonist having the sequence Succ-Asp-Ser-D-Trp—N(Me)Val-βAla-Leu-Met-NH2, SEQ ID NO. 6) were dissolved in the Tris-HCl solution. Then, each of the various solutions was mixed with 3 Kg of basic feed pellets using an electric mixer. The peptide-feed mixtures where then dried either in oven at 40° C. for 24 hours or in drying drum for few hours to form coated pellets. The total amount of each feed was 3 Kg.
Tilapia fish (n=3600) have been raised from age 10 to 106 days post-hatch (dph) in indoor tanks kept under artificial lightening (12 h light; 12 h dark), and then transferred to cages in ponds for 160 days (total 8-9 months). The fish were fed to apparent satiation 2-4 times a day, for about 90 days (10-106 dph, Phase 1), either with regular feed (Feed A, Group A, n=600 in 3 repeats) or with feed coated with AN6 peptide solution in a ratio of 10 mg AN6/Kg feed (10 ppm, Feed C, Group B, n=600 in 3 repeats). In the second phase, fish in group B were fed for 50 days (207-257 dph, Phase 2) with feed coated with AN6 peptide solution, in a ratio of 30 mg AN6/Kg feed (30 ppm, Feed D, Group B). Between days 107 and 206 the fish received control feed (feed A).
During the experiment period, the average fish weight was measured, and the daily growth rate was calculated by dividing the average weight gained in each measuring period by the number of days since the last measurement. […] This effect was also evident in the daily growth rate (FIG. 1, experiment #1). The relatively low growth rate measured in the initial phase of this experiment probably stemmed from high stocking density in tanks system in the initial period (Phase 1, Table 2, until day 106 post-hatch). This growth restriction was fully compensated in the larger cages in ponds (178 dph) where stocking density was much lower (from 106 dph, <10 Kg fish/m3).
During the experiments described above, dead fish were removed from tanks before each feeding, and then counted and weighed. Dead fish were not replaced after the beginning of the experiment. In the cage systems, in which dead fish are undetectable, actual mortality was estimated by the difference between initial and final count.
During the experiment described in example 2 (experiment #1), the fish were exposed to high stocking densities in indoor tanks (13-130 kg/m^3, 83-106 dph, Table 2, FIG. 7). High stocking density is known as a major fish stressor resulting, inter alia, in chronic increase in Cortisol levels, reduced growth, changes in behavior and inhibition of immune performance. Although mortality in these tanks was not high, a significant increase in mortality was observed following fish transfer to the pond (FIG. 7, 17.5%±2.4 mortality, x±SE).
In order to determine the efficiency of feed conversion into fish substance in experiments (#1, #2, #3), FCR values which reflect the amount of feed needed to grow a kilogram fish, were calculated for each period and for the entire fish growth period. In order to determine the amount of consumed feed, the amount of feed provided was measured daily for each tank and the leftovers were collected, weighted and subtracted from the total amount of feed. Dead fish were removed every day before each feeding and then counted and weighed for accurate calculation of feed intake and FCR. […]

[2] = system: TK receptors (tac1, tac2, tac3); experiment: TK receptor mRNA expression following AN6 treatment; assay type: in vivo; conditions: different parts of the gut and skin
[3] = 10 mg AN6/Kg feed 10-106 dph, first 200 days of experiment, vs control

For “Succ-Asp-Ser- D-Trp -N(Me)Val-βAla-Leu-Met-NH2 (Suc-DS[dW][NMeV][βAla]LM-NH2; SMILES CSCC[C@H](NC(=O)[C@H](CC(C)C)NC(=O)CCNC(=O)[C@H](C(C)C)N(C)C(=O)[C@@H](Cc1c[nH]c2ccccc12)NC(=O)[C@H](CO)NC(=O)[C@H](CC(=O)O)NC(=O)CCC(=O)O)C(N)=O) [AN6]”, which cleared from blood [1] is on record?
The cleared from blood was roughly 4.5 min.

And the “half-life time in blood” value [1]?
The value was “very short”.

And the “peptide residual in muscle and blood after treatment” value [1]?
The value was “no peptide residual is detected”.

What about the “residual peptide in muscle and plasma following treatment” value [1] of the same substance?
The value was “non residual peptide was observed”.

What about the daily growth rate (Tilapia fish; [3]) of the same substance?
The daily growth rate was “no differences”.

What about the fish average weight (Tilapia fish; [3]) of the same substance?
Its fish average weight is “no differences”.

What about the “FCR and growth performance” value (Tilapia fish; 10 and 30 mg AN6/Kg feed (experiment #1)) of the same substance?
Its value is “both improved FCR and growth performance”.

And the “number of fish in the upper 6.5th decile” value (Tilapia fish; AN6 treatment group (control 6%))?
Its value is 12%.

What about the “number of fish in the lower 2th decile” value (Tilapia fish; AN6 treatment group (control 9%)) of the same substance?
Its value is 7%.

What about the “mortality following fish transfer to the pond (x±SE)” value (Tilapia fish; after high stocking density in tanks, control 17.5%±2.4, FIG. 7) of the same substance?
Its value is 10.5%±1.8.

And the increased total biomass (Tilapia fish; experiment #1, FIG. 3A, vs control)?
Its increased total biomass is “+18%”.

And the “reduction of fish mortality as compared to the control groups” value (Tilapia fish; in the pond, FIG. 7)?
The value was 8.5%.

What about the “weight gained normalized according to the initial body weight, difference compared to the control group” value (Tilapia fish; second phase of the experiment (FIG. 2A)) of the same substance?
The value was 6% and 9%.

What about the “expression of all TK receptors (tac1, tac2, tac3)” value [2] of the same substance?
Its value is “altered”.
